Several values for one entry are separate records, joined by “and”; a condition that tells them apart may be missing. Equal values may be shown once.
What was measured:
KPC mouse model of PDAC = test: Overt metastatic lesions observed during necropsy, KPC survival study; type: in vivo; settings: for Ascites / overt metastatic lesions, Diaphragm / overt metastatic lesions, Liver / overt metastatic lesions, Lungs / overt metastatic lesions, Small intestine: KPC mice
Experimental: Fig. 4 PXS-5505 administered in a KPC in vivo survival study. a, Schematic of the KPC in vivo survival study. Presence of a primary tumor in KPC mice was confirmed by two independent researchers (positive diagnosis) before commencement of daily treatment (Tx) on one of four treatment arms as follows: vehicle, 0.9% saline; Gem, twice-weekly gemcitabine (100 mg kg^−1 i.p.); PXS-5505, daily PXS-5505 at 20 mg kg^−1 i.p.; and PXS-5505 + Gem, daily PXS-5505 at 20 mg kg^−1 i.p. + twice-weekly gemcitabine (100 mg kg^−1 i.p.). b, Table of median survival (since diagnosis/commencement of treatment) across the four treatment groups (n = 30 biologically independent animals (vehicle), n = 31 biologically independent animals (Gem), n = 36 biologically independent animals (PXS-5505), n = 46 biologically independent animals (PXS-5505 + Gem)). c, Kaplan–Meier curves for overall survival across treatment arms (n = 30 biologically independent animals (vehicle), n = 31 biologically independent animals (Gem), n = 36 biologically independent animals (PXS-5505), n = 46 biologically independent animals (PXS-5505 + Gem)). P values determined by log-rank (Mantel–Cox) test. d, Representative maximum intensity projections of SHG multiphoton imaging for tumors from each treatment group (n = 1 FOV taken from one biologically independent animal per group) at end point (scale bars, 100 μm) and quantification of SHG peak signal intensity (n = 5 biologically independent animals per group and five FOV per animal). Data are mean ± s.d. […] Quantification of metastases (n = 18 biologically independent animals (vehicle), n = 18 biologically independent animals (Gem), n = 17 biologically independent animals (PXS-5505), n = 15 biologically independent animals (PXS-5505 + Gem)). Data are mean ± s.d.
We quantified presence of overt metastatic dissemination to organs across the different treatment groups (Fig. 4f).
For the KPC autochthonous model, gemcitabine HCl (Jomar Life Research) or vehicle control (0.9% saline) was administered by i.p. injection twice weekly (100 mg kg^−1 in saline) on day 2 and 4 of the treatment cycle until the end point was reached. GLP-grade PXS-5505 (20 mg kg^−1 in saline) or vehicle (0.9% saline) was administered daily by i.p. injection. Treatment of mice was initiated upon detection of a palpable tumor, verified by two independent researchers and monitoring of mice continued daily until the experimental end point. End points were defined as development of ascites, overnight weight loss >10% of body weight, hunching posture and/or signs of distress and/or suffering, total weight loss ≥20% from maximum body weight or tumor interfering with mobility and access to food and water. The maximal tumor burden allowed by ethics was not exceeded. At the end point, primary tumors and secondary metastatic organs (including liver, small intestine, diaphragm and lungs) were collected and samples were taken for formalin fixation overnight, unconfined compression analysis and snap-frozen for tissue banking. Fixed tissues were processed according to standard histology protocols and paraffin-embedded.

KPC PDAC tumors = test: FITC-dextran (10 kDa) perfusion imaging, KPC tumors; type: in vivo, mouse; settings: for FITC-dextran (10 kDa) signal quantification: Extended Data 5C, KPC tumour endpoint, individual FOV, 5xFOV per tumour
Experimental: FITC-dextran (10 kDa) was administered at 40 mg ml^−1 in saline via tail vain 2 h before culling. Excised tumors were flash-frozen in OCT and cryosectioned at 14 μm. Sections were counterstained with 4,6-diamidino-2-phenylindole (DAPI) and images were collected using a Leica DMI5500 (×40 magnification). Images were quantified using Fiji Software for Integrated Density Signal.
Extended Data Fig. 5 PXS-5505 in combination with gemcitabine in vivo. a. […] Signal is defined as the enzyme activity in the aorta, while noise is measured in the presence of a high concentration (300 µM) BAPN to abolish any lysyl oxidase family activity. […] Data presented as mean values +/− SD b. […] Data presented as mean values +/− SD. c. FITC-dextran (molecular weight: 10 kDa) signal quantification from KPC tumor end point from each treatment group (vehicle n = 3 biologically independent animals, PXS-5505 n = 5 biologically independent animals, Gem n = 5 biologically independent animals, PXS-5505 + Gem n = 5 biologically independent animals). […] P-values determined by Welchs t-test. Data presented as mean values +/− SD. Scale bars = 100 μm d. Quantification of red birefringent (mature) collagen fibers from human PDXs at end point after 3 cycles of treatment, treated as indicated. […] Quantification of bulk modulus (stiffness) by unconfined compression testing of end point human PDX tumors from each treatment group (vehicle n = 5 biologically independent animals, Gem n = 5 biologically independent animals, PXS-5505 n = 5 biologically independent animals, PXS-5505 + Gem n = 5 biologically independent animals) [individual tumors shown]). […] FITC-dextran (molecular weight 10 kDa) signal quantification from human PDXs from each treatment group (vehicle n = 4 biologically independent animals, PXS-5505 n = 5 biologically independent animals, Gem n = 5 biologically independent animals, PXS-5505 + Gem n = 5 biologically independent animals). […] P values determined by Welchs t-test. g. […] Quantification of green birefringent (nascent) collagen fibers from human PDXs at end point, treated as indicated. […]

SMILES | Ascites (number of mice) (KPC mouse model of PDAC) | overt metastatic lesions, Diaphragm (number of mice) (KPC mouse model of PDAC) | overt metastatic lesions, Liver (number of mice) (KPC mouse model of PDAC) | overt metastatic lesions, Lungs (number of mice) (KPC mouse model of PDAC) | overt metastatic lesions, Small intestine (number of mice) (KPC mouse model of PDAC) | Ascites (KPC mouse model of PDAC) | overt metastatic lesions, Diaphragm (KPC mouse model of PDAC) | overt metastatic lesions, Liver (KPC mouse model of PDAC) | overt metastatic lesions, Lungs (KPC mouse model of PDAC) | overt metastatic lesions, Small intestine (KPC mouse model of PDAC) | FITC-dextran (10 kDa) signal quantification (KPC PDAC tumors) | FITC-dextran signal (tumor perfusion) (KPC PDAC tumors; KPC tumors at end point)
Nc1ccn([C@@H]2O[C@H](CO)[C@@H](O)C2(F)F)c(=O)n1 [Gem, gemcitabine] | 1/20 | 3/20 | 3/20 | 5/20 | 9/20 | 5% | 15% | 15% | 25% | 45% | 60068 and 66083 and 67045 and 264388 and 103749 and 136715 and 44993 and 342971 and 570220 and 195046 and 425899 and 308368 and 729076 and 598797 and 690249 and 193339 and 215616 and 99212 and 74761 and 57841 | significantly reduced FITC signal
Cl.Cl.NC/C=C(\F)CS(=O)(=O)c1cccc2cccnc12.O [PXS-5505, (Z)-3-fluoro-4-(quinolin-8-ylsulfonyl)but-2-en-1-amine dihydrochloride monohydrate] | 3/23 | 2/23 | 3/23 | 2/23 | 8/23 | 13% | 9% | 13% | 9% | 35% | 643536 and 877109 and 855018 and 639402 and 1028780 and 1101294 and 1096543 and 614729 and 1678517 and 411292 and 888855 and 96222 and 332580 and 192955 and 224263 and 475860 and 248857 and 803743 and 104073 and 736895 | –

— PMC10518255, “A first-in-class pan-lysyl oxidase inhibitor impairs stromal remodeling and enhances gemcitabine response and survival in pancreatic cancer” (Nature Cancer, 2023)
